According to US5137905A, “Heterocyclic acetylenic amines having central nervous system activity” (The Upjohn Company, priority 1991, dated 1992):
Like-named read-outs stand apart in the source and are kept apart here.

Experiments:
HCl-induced writhing = experiment: HCl writhing protection (analgesic activity); assay type: in vivo, CF1 mice; conditions: Mus musculus, sc, read-out: CNS Id (ED50 mg/kg) HCl Writh. Protect
Protocol: For determination of analgesic activity, the test compound was injected subcutaneously into a group of four CF1 mice. Thirty minutes later the mice were injected i.p. with 0.15% HCl, 10 ml./kg. Mice were then placed in plastic boxes and observed for fifteen minutes to record the number of animals failing to writhe.

CNS cholinergic receptor [1] = conditions: tritiated quinuclidine benzylate (QNB); read-out: CNS Cholinergic Receptor Binding Assays K1 QNB
CNS cholinergic receptor [2] = experiment: CNS cholinergic receptor binding, oxotremorine M ligand; conditions: tritiated oxotremorine M; read-out: CNS Cholinergic Receptor Binding Assays K1 Oxotremorine
[3] = tested on: oxotremorine-induced body tremor; experiment: Oxotremorine antagonist assay (body tremor); assay type: in vivo, mice; conditions: Mus musculus, ip; read-out: Oxot. Antagonist Tremor (ED50)
Protocol: Oxotremorine antagonist assays were performed on groups of six mice weighing 18-22 g. Each was dosed intraperitoneally with the test compound prepared in 0.25% methylcellulose and were placed in individual cages. Twenty minutes later the mice were injected subcutaneously with 0.5 mg/kg of oxotremorine dissolved in saline. Ten minutes later the mice were scored for body tremor. Doses of the compound under study began at 100 mg/kg and were decreased at a 0.5 log interval until no responders were obtained.

[4] = ED50, s.c. in CF1 mice, 30 min before i.p. 0.15% HCl

Row | Structure (SMILES) | ED50 (HCl-induced writhing; [4]) [mg/kg] | Ki (CNS cholinergic receptor [1]) [nM] | Ki (CNS cholinergic receptor [2]) [nM] | ED50 [3] [mg/kg] | ED50 (HCl-induced writhing) [mg/kg]
1 | CN1CCN(CC#CCN2CCCC2)C1=O [Compound 1, 1-Methyl-3-[4-(1-pyrrolidinyl)-2-butynyl]-2-imidazolidinone] | 0.2 | 180 | 2.7 | > 3 | –
2 | CC(C)(C)OC(=O)N1CCN(CC#CCN2CCCC2)C1=O [Compound 8, t-Butyl 2-oxo-3-[4-(1-pyrrolidinyl)-2-butynyl]-1-imidazolidinecarboxylate] | 25 | 2200 | 130 | > 100 | –
3 | O=C1NCCN1CC#CCN1CCCC1 [Compound 9, 1-[4-(1-Pyrrolidinyl)-2-butynyl]-2-imidazolidinone] | 2.2 | 800 | 13 | > 3 | –
4 | CN(C)CC#CCN1CCN(C)C1=O [Compound 10, 1-[4-(1-Dimethylamino)-2-butynyl]-3-methyl-2-imidazolidinone] | > 13 | 180 | 4.5 | > 10 | –
5 | CN(C)CC#CCN1CCN(C(=O)OC(C)(C)C)C1=O [Compound 11, t-Butyl 3-[4-(dimethylamino)-2-butynyl]-2-oxo-1-imidazolidinecarboxylate] | > 50 | 4700 | 160 | > 100 | –
6 | CC1(C)CN(CC#CCN2CCCC2)C(=O)N1 [Compound 12, 4,4-Dimethyl-1-[4-(1-pyrrolidinyl)-2-butynyl]-2-imidazolidinone] | > 50 | – | 820 | > 100 | –
7 | CN1C(=O)N(CC#CCN2CCCC2)CC1(C)C [Compound 13, 3,4,4-Trimethyl-1-[4-(1-pyrrolidinyl)-2-butynyl]-2-imidazolidinone] | 12.5 | – | > 10000 | > 100 | –
8 | C#CCN1CCN(CC#CCN2CCCC2)C1=O [Compound 14, 1-(2-Propynyl)-3-[4-(1-pyrrolidinyl)-2-butynyl]-2-imidazolidinone] | > 25 | 2300 | 200 | > 30 | –
9 | CC1CN(CC#CCN2CCCC2)C(=O)N1 (centres unmarked) [Compound 15, 4-Methyl-1-[4-(1-pyrrolidinyl)-2-butynyl]-2-imidazolidinone] | > 13 | 1000 | 140 | > 10 | –
10 | CC1(C)CNC(=O)N1CC#CCN1CCCC1 [Compound 16, 5,5-Dimethyl-1-[4-(1-pyrrolidinyl)-2-butynyl]-2-imidazolidinone] | 25 | 1000 | 290 | > 100 | –
11 | CC1CN(CC#CCN2CCCC2)C(=O)N1C(=O)OC(C)(C)C (centres unmarked) [Compound 17, t-Butyl 5-methyl-2-oxo-3-[4-(1-pyrrolidinyl)-2-butynyl]-1-imidazolidinecarboxylate] | > 25 | 2700 | 810 | > 100 | –
12 | CC1CN(C(=O)OC(C)(C)C)C(=O)N1CC#CCN1CCCC1 (centres unmarked) [Compound 18, t-Butyl 4-methyl-2-oxo-3-[4-(1-pyrrolidinyl)-2-butynyl]-1-imidazolidinecarboxylate] | 25 | 820 | 180 | > 30 | –
13 | CC1CN(C)C(=O)N1CC#CCN1CCCC1 (centres unmarked) [Compound 19, 1,4Dimethyl-3-[4-(1-pyrrolidinyl)-2-butynyl]-2-imidazolidinone] | > 13 | 20 | 4 | 6.6 | –
14 | O=C1N(CC#CCN2CCCC2)CCN1c1ccccc1 [Compound 20, 1-Phenyl-3-[4-(1-pyrrolidinyl)-2-butynyl]-2-imidazolidinone] | > 25 | 170 | 69 | > 30 | –
15 | CN(C)CC#CCN1CCN(c2ccccc2)C1=O [Compound 21, 1-[4-(Dimethylamino)-2-butynyl]-3-phenyl-2-imidazolidinone] | > 50 | > 10000 | 840 | > 100 | –
16 | CC(C#CCn1ccnc1)N1CCN(C)C1=O (centres unmarked) [Compound 35, 3-[4-(1H-Imidazol-1-yl)-1-methyl-2-butynyl]-1-methyl-2-imidazolidinone] | – | 4010 | 120 | > 100 | –
17 | CN(C)CC#CCn1ccn(C)c1=O [Compound 37, 1,3-Dihydro-1-[4-(dimethylamino)-2-butynyl]-3-methyl-2H-imidazol-2-one] | – | > 10000 | 37 | > 100 | –
18 | O=c1[nH]ccn1CC#CCN1CCCC1 [Compound 38, 1,3-Dihydro-1-[4-(1-pyrrolidinyl)-2-butynyl]-2H-imidazol-2-one] | – | > 10000 | 33 | > 2 | –

Row | Structure (SMILES) | ED50 (HCl-induced writhing; [4]) [mg/kg] | Ki (CNS cholinergic receptor [1]) [nM] | Ki (CNS cholinergic receptor [2]) [nM] | ED50 [3] [mg/kg] | ED50 (HCl-induced writhing) [mg/kg]
19 | CC(C#CCN1CCCC1)n1ccn(C)c1=O (centres unmarked) [Compound 39, 1,3-Dihydro-1-methyl-3-[1-methyl-4-(1-pyrrolidinyl)-2-butynyl]-2H-imidazol-2-one] | – | 88 | 9 | > 30 | –
20 | CC(C#CCN(C)C)n1ccn(C)c1=O (centres unmarked) [Compound 40, 1,3-Dihydro-1-methyl-3-[4-(dimethylamino)-1-methyl-2-butynyl]-2H-imidazol-2-one] | – | > 10000 | 136 | > 100 | –
21 | CN1CCCN(CC#CCN2CCCC2)C1=O [Compound 42, Tetrahydro-1-methyl-3-[4-(1-pyrrolidinyl)-2-butynyl]-2(1H)-pyrimidinone] | – | 1580 | 229 | > 30 | –
22 | CN1C(=O)CN(CC#CCN2CCCC2)C1=O [Compound 43, 3-Methyl-1-[4-(1-pyrrolidinyl)-2-butynyl]-2,4-imidazolidinedione] | – | > 10000 | 364 | > 100 | –
23 | CN1CC(=O)N(CC#CCN2CCCC2)C1=O [Compound 44, 1-Methyl-3-[4-(1-pyrrolidinyl)-2-butynyl]-2,4-imidazolidinedione] | – | 8710 | 20 | > 30 | –
24 | CC(C)(C)OC(=O)N1CCC[C@@H]1C#CCN1CCCC1 [Compound 49A, (R)-t-Butyl 2-[3-(1-pyrrolidinyl)-1-propynyl]-1-pyrrolidine-carboxylate] | 13 | 430 | 20 | 100 | –
25 | CC(C)(C)OC(=O)N1CCC[C@H]1C#CCN1CCCC1 [Compound 49B, (S)-t-Butyl 2-[3-(1-pyrrolidinyl)-1-propynyl]-1-pyrrolidinecarboxylate] | > 50 | > 10000 | 3500 | > 100 | –
26 | CN(C)CC#C[C@H]1CCCN1C(=O)OC(C)(C)C [Compound 49C, (R)-t-Butyl 2-[3-(dimethylamino)-1-propynyl]-1-pyrrolidinecarboxylate] | > 50 | > 10000 | 44 | > 100 | –
27 | C(#C[C@H]1CCCN1)CN1CCCC1 [Compound 50A, (R)-1-[3-(2-pyrrolidinyl)-2-propynyl]pyrrolidine] | – | 4800 | 260 | > 100 | –
28 | CN(C)CC#C[C@H]1CCCN1 [Compound 50C, (R)-N,N-dimethyl-3-(2-pyrrolidinyl)-2-propyn-1-amine] | – | > 1000 | 970 | > 100 | > 50
29 | CN(C)CC#C[C@@H]1CCCN1 [Compound 50D, (S)-N,N-dimethyl-3-(2-pyrrolidinyl)-2-propyn-1-amine] | > 50 | > 10000 | > 10000 | > 100 | –
30 | CC(=O)N1CCC[C@@H]1C#CCN1CCCC1 [Compound 51A, (R)-1-Acetyl-2-[3-(1-pyrrolidinyl)-1-propynyl]pyrrolidine] | > 50 | 120 | – | 3 | –
31 | CC(=O)N1CCC[C@H]1C#CCN1CCCC1 [Compound 51B, (S)-1-Acetyl-2-[3-(1-pyrrolidinyl)-1-propynyl]pyrrolidine] | – | 2300 | 370 | > 30 | –
32 | CC(=O)N1CCC[C@@H]1C#CCN(C)C [Compound 51C, (R)-1-Acetyl-2-[3-(dimethylamino)-1-propynyl]pyrrolidine] | > 50 | > 10000 | 130 | > 100 | –
33 | CC(=O)N1CCC[C@H]1C#CCN(C)C [Compound 51D, (S)-1-Acetyl-2-[3-(dimethylamino)-1-propynyl]pyrrolidine] | > 50 | > 10000 | 10000 | > 100 | –
34 | CN(C)C(=O)N1CCC[C@@H]1C#CCN1CCCC1 [Compound 51E, (R)-N,N-Dimethyl 2-[3-(1-pyrrolidinyl)-1-propynyl]-1-pyrrolidinecarboxamide] | > 50 | 43 | 12 | 25 | –
35 | CN(C)C(=O)N1CCC[C@H]1C#CCN1CCCC1 [Compound 51F, (S)-N,N-Dimethyl 2-[3-(1-pyrrolidinyl)-1-propynyl]-1-pyrrolidinecarboxamide] | > 50 | 2000 | 460 | > 100 | –
36 | CNC(=O)N1CCC[C@@H]1C#CCN1CCCC1 [Compound 51G, (R)-N-Methyl 2-[3-(1-pyrrolidinyl)-1-propynyl]-1-pyrrolidinecarboxamide] | > 50 | > 10000 | 240 | > 100 | –
